Source: patent US6107459A, “Technetium-99m labeled peptides for diagnostic imaging” (Diatide, Inc., priority 1995, dated 2000)
Like-named read-outs stand apart in the source and are kept apart here. Where a SMILES comes first, the peptide text is derived from it. Where no end group is shown, it is not given here. The star is where a group is joined. X1 = CC(C)(S)CNCCN(CCCCC(=O)*)CC(C)(C)S

Legend:
[1] = test system: sites of infection (E. coli, left calf muscle); assay: Scintigraphic imaging and biodistribution of Tc-99m labeled peptides in E. coli-infected rabbits; type: in vivo, New Zealand white rabbits; conditions: for Ratio of Infected/Blood / Ratio of Infected/Control: ratio of % ID/g; for Ratio of Infected/Blood: infected muscle tissue versus blood; for Ratio of Infected/Control: infected versus non-infected muscle tissue; for Infected Muscle (% ID/g): Tc-99m labeled peptide i.v. (≤150 μg, 2-10 mCi), 24 h after i.m. E. coli inoculation, tissue taken after final imaging, percent injected dose per gram tissue; for Blood (% ID/g) / Control Muscle (% ID/g): rabbit, in vivo, iv
Protocol: (§1) After 24 h, the animals were sedated by i.m. injection of ketamine and xylazine, and then injected i.v. with Tc-99m labeled peptide (≤150 μg, 2-10 mCi). The animals were positioned supine in the field of view of a gamma camera (LEAP collimator/photopeaked for Tc-99m) and imaged over the first hour post-injection, and then at approximately 1 h intervals over the next three hours post injection. Animals were allowed to recover between image acquisitions and re-anesthetized as needed.
(§2) Upon completion of the final imaging, each animal was sacrificed by overdose of phenobarbital i.v. and dissected to obtain samples of blood and of infected and control muscle tissue. The tissue samples were weighed, and along with a standard amount of the injected dose, were counted using a gamma counter, and the percent injected dose (per gram of tissue) remaining in the tissues was determined. Ratios of percent of injected dose per gram of infected versus non-infected muscle tissue, and of infected muscle tissue versus blood, were calculated for each peptide. Scintiphotos of whole body and leg images of a rabbit injected with a Tc-99m labeled reagent of the invention, having the formula

[2] = as above; type: in vivo, New Zealand white rabbits; conditions: rabbit, in vivo, iv
Protocol: as §1, §2

Molecule | Ratio of Infected/Blood [1] | Ratio of Infected/Control [1] | tissue uptake ([2]; Blood (% ID/g)) | tissue uptake ([2]; Control Muscle (% ID/g)) | tissue uptake ([2]; Tc-99m labeled peptide i.v. (≤150 μg, 2-10 mCi), 24 h after i.m. E. coli inoculation, tissue taken after final imaging, percent injected dose per gram tissue, read-out: Infected Muscle (% ID/g)) | Infected Muscle (% ID/g) [1] | Blood (% ID/g) [1] | Control Muscle (% ID/g) [1] | Scintigraphic images (FIG. 1): localization of radioactivity, infected leg versus contralateral leg ([1]; gamma camera, whole body and leg images of a rabbit injected with the Tc-99m labeled reagent)
CC[C@H](C)[C@H](NC(=O)[C@H](CCCCN)NC(=O)[C@H](CCCCN)NC(=O)[C@H](Cc1ccc(O)cc1)NC(=O)[C@H](CC(C)C)NC(=O)[C@@H]1CCCN1C(=O)CNC(=O)CNC(=O)CCCCN(CCNCC(C)(C)S)CC(C)(C)S)C(=O)N[C@H](C(=O)N[C@@H](CCCCN)C(=O)N[C@@H](CCCCN)C(=O)N[C@@H](CC(C)C)C(=O)N[C@@H](CC(C)C)C(=O)N[C@@H](CCC(=O)O)C(=O)N[C@@H](CO)C(=O)O)[C@@H](C)CC [[BAT].GGPLYKKIIKKLLES] (X1-GGPLYKKIIKKLLES-OH; N-terminus and C-terminus assumed) | 0.50 | 7.00 | 0.004 %ID/g | 0.0003 %ID/g | 0.0021 %ID/g | – | – | – | –
(Ac.CCAcm GCAcm PLYKKIIKKLLES)2 BSME: PF4-derived peptide dimer linked by bis-succinimidylmethylether, Cys(Acm)-Gly-Cys(Acm) Tc-99m binding moiety | 0.84 | 7.45 | – | – | – | 0.0082 % ID/g | 0.010 % ID/g | 0.0011 % ID/g | –
Ac.CGGGPLYKKIIKKLLES: Tc-99m labeled platelet factor 4-derived peptide reagent (Ac-CGGGPLYKKIIKKLLES; also: Tc-99m labeled) | 0.74 | 4.70 | – | – | – | 0.0235 % ID/g | 0.032 % ID/g | 0.0050 % ID/g | –
Ac.KKKKKCAcm GCAcm GGPLYKKIIKKLLES: Tc-99m labeled platelet factor 4-derived peptide reagent | 0.93 | 5.60 | – | – | – | 0.0061 % ID/g | 0.006 % ID/g | 0.0019 % ID/g | much greater extent of localization of radioactivity in the leg bearing the experimentallly-infected site compared to the non-infected contralateral leg
